Test results published in patent US20230276703A1, “ORGANIC SEMICONDUCTOR MATERIAL” (The University of Tokyo, priority 2020, published 2023).

Test: Solvent solubility evaluation in o-dichlorobenzene
Format: physicochemical
Conditions: heated at 100° C., visual confirmation of dissolution, (w/Vd)×100
Protocol: Approximately 1 mg of each compound (accurate weight was w (mg)) was weighed in a sample tube, and 20 μL of o-dichlorobenzene was added thereto by using a micropipette. The sample tube was capped and heated at 100° C. by a hot plate. Whether or not the compound was dissolved was visually confirmed. When the compound was not dissolved, the operation of adding o-dichlorobenzene in an amount of 20 μL per addition until the compound was dissolved and heating to 100° C. was repeated.
The solubility (wt. %) of the compound was calculated based on the following formula. Note that V in the formula is a volume (μL) of the o-dichlorobenzene added to dissolve the compound, and d is a density (g/cm^3) of the o-dichlorobenzene.
Solubility (%)=(w/Vd)×100

Row | Compound | Solubility (%)
1 | CCCCCCCCN1C(=S)c2cnc3c4ccc5c6c(cnc(c7ccc1c2c73)c64)C(=S)N5CCCCCCCC [Compound (III)] | 0.49
2 | O=C1c2ccc3c4ncc5c6c(ccc(c7ncc(c2c37)C(=O)N1CCc1ccccc1)c64)C(=O)N(CCc1ccccc1)C5=O [Compound (IX), reference compound] | <0.0007
3 | CCCCCCCCN1C(=O)c2ccc3c4ncc5c6c(ccc(c7ncc(c2c37)C1=O)c64)C(=O)N(CCCCCCCC)C5=O [Compound (X), reference compound] | 0.019

Results, then the compound that gave them:

Row | Solubility (%) | Compound
4 | 0.58 | CCCCCCCCN1C(=O)c2cnc3c4ccc5c6c(cnc(c7ccc1c2c73)c64)C(=O)N5CCCCCCCC [Compound (II)]
5 | 0.027 | CCCN1C(=O)c2cnc3c4c(C#N)cc5c6c(cnc(c7c(C#N)cc1c2c37)c64)C(=O)N5CCC [Compound (VI)]
6 | 0.52 | CCCCCCN1C(=O)c2cnc3c4c(C#N)cc5c6c(cnc(c7c(C#N)cc1c2c37)c64)C(=O)N5CCCCCC [Compound (VIII)]
